Starred links: 1 amine or outer side, 2 acyl side, 3 side chain; linkers in the order of their positions; H or OH if unused. Non-standard residues stand in square brackets, D forms with d. Residues, ends and D or L forms follow the SMILES beside them. X1 = CCC[C@@H](N[*:1])[C@H](C)C(=O)[*:2]; Met(O2) = CS(=O)(=O)CC[C@H](N)C(=O)O; dNMeF = CN[C@H](Cc1ccccc1)C(=O)O; NMeL = CN[C@@H](CC(C)C)C(=O)O; dHiv = CC(C)[C@@H](O)C(=O)O

The test system of data set [1] is HEK293. Nature of the data set: Cytotoxicity against HEK293 cells after 48 hrs by resazurin conversion-based fluorometric assay. It counts as cell-based. The settings on record: Homo sapiens, HEK293, 48 h.
For data set [2], the system named is Spodoptera exigua. Nature of the data set: Antilepidopteran activity against beet armyworm neonates assessed as mortality rate at 1.0 mg/ml after 5 days. It counts as functional.
The test system of data set [3] is HEK293. Put plainly: Cytotoxicity against HEK293 cells at 400 nM after 48 hrs by resazurin conversion-based fluorometric assay. It counts as cell-based. Conditions: human, hek293, 48 h, 0.4 µM. For orientation: Resazurin is reduced to fluorescent resorufin, in cell work by metabolically active cells.

As to `C[C@@H]1C(=O)O[C@@H](C(C)(C)O)c2nc(cs2)C(=O)OC(C)(C)[C@H](O)c2nc(cs2)C(=O)O[C@H]1CCCC(C)(Cl)Cl` [DEACETYLHECTOCHLORIN], 6 µM corresponded to half-maximal inhibition in data set [1] (IC50).

Turning to `CC(CC(=O)N(C)[C@@H]1C(=O)N(C)[C@@H](C(C)C)C(=O)N[C@H](C)C(=O)N(C)[C@@H](C)C(=O)N(C)[C@H](Cc2ccccc2)C(=O)N[C@@H](C)C(=O)O[C@@H]1C)C(Cl)Cl` (stereo partly drawn) [ITRALAMIDE A], the IC50 (as a rule, the midpoint of a concentration-inhibition curve) in data set [1] was found to be 54 µM.

Consider `CCC/C(=C\Cl)CCCC(=O)NC(C)CC(C)C(=O)C(C)CC/C=C/Cl` (stereo not drawn) [GRENADAMIDE], for which the Activity in data set [2] came to 50%. Further, the concentration for half-maximal inhibition (IC50) in data set [1] is at least 100 µM.

With `COc1cccc2c1C(=O)c1c(O)c3c(c(O)c1C2=O)C[C@@](O)(C(C)=O)C[C@@H]3O[C@H]1C[C@H](N)[C@H](O)[C@H](C)O1` [DAUNORUBICIN], the Activity in data set [3] turned out to be 82%.

In data set [1], `CCC[C@H]1NC(=O)[C@H](C)NC(=O)[C@H](CC(C)C)N(C)C(=O)[C@H](Cc2ccccc2)NC(=O)[C@H](CCS(C)(=O)=O)NC(=O)[C@@H](Cc2ccccc2)N(C)C(=O)[C@@H](C(C)C)OC(=O)[C@H]1C` [CARRIEBOWMIDE SULFONE] (cyclo(A[X1][dHiv][dNMeF][Met(O2)]F[NMeL])) displayed a 50% inhibitory concentration (IC50) above 50 µM.

As to `C=CCCC(C)C(=O)C(C)CC(C)NC(=O)CCC/C(=C/Cl)CCC` (stereo not drawn) [GRENADAMIDE B], the Activity in data set [2] was determined as 38%. The IC50 in data set [1] was at least 100 µM.
